Format in all cases: functional, cell-based
The subject of test [1] is MCF7. Description: Antiproliferative activity against human MCF7 cells assessed as cell growth inhibition measured after 48 hrs in presence of uridine by SRB assay. The following applies: MCF7, 48 h.
The subject of test [2] is MCF7. As to the kind of experiment: Antiproliferative activity against human MCF7 cells assessed as cell growth inhibition measured after 48 hrs by SRB assay. The following applies: MCF7, 48 h, read-out: IC50. (Sulforhodamine B stains cellular protein and so reports cell mass.)
In test [3] the test system is M21. As to the kind of experiment: Antiproliferative activity against human M21 cells assessed as cell growth inhibition measured after 48 hrs in presence of uridine by SRB assay. The following applies: M21, 48 h.
Test [4] has as its system HT-29. Description: Antiproliferative activity against human HT-29 cells assessed as cell growth inhibition measured after 48 hrs by SRB assay. The note with it: HT-29, 48 h, read-out: IC50.
The test system of test [5] is M21. Description: Antiproliferative activity against human M21 cells assessed as cell growth inhibition measured after 48 hrs by SRB assay. The following applies: M21, 48 h.
The test system of test [6] is HT-29. Description: Antiproliferative activity against human HT-29 cells assessed as cell growth inhibition measured after 48 hrs in presence of uridine by SRB assay. The note with it: HT-29, 48 h.
In test [7] the test system is HT-1080. Description: Antiproliferative activity against human HT-1080 cells assessed as cell growth inhibition measured after 48 hrs by SRB assay. The note with it: HT-1080, 48 h.
Test [8] concerns HT-1080. Description: Antiproliferative activity against human HT-1080 cells assessed as cell growth inhibition measured after 48 hrs in presence of uridine by SRB assay. The following applies: HT-1080, 48 h.

The text below walks through data of ChEMBL document CHEMBL4715855, “N-phenyl ureidobenzenesulfonates, a novel class of promising human dihydroorotate dehydrogenase inhibitors” (Bioorg Med Chem, 2020).

The term IC50 denotes the concentration at which inhibition is half-maximal.

Turning to `Cc1oncc1C(=O)Nc1ccc(C(F)(F)F)cc1` [LEFLUNOMIDE], the IC50 with MCF7 [1] turned out to be 57 µM; with MCF7 [2], 55 µM; in the test with M21 [3], 83 µM; in the test with HT-29 [4] it was 75 µM; in the test on M21 [5] it was 83 µM; in the test with HT-29 [6], 75 µM. The IC50 with HT-1080 [7] came out at 30 µM; with HT-1080 [8] it was 38 µM.
